# Experimental data published in patent US11919908B2, “Substituted pyrrolo[2,3-d]pyrimidine compounds as JAK2 V617F inhibitors” (Incyte Corporation, priority 2020, dated 2024).
# pIC50: −log10 of the molar value.
# Assays:
# [1] = target: T1, pseudo-kinase domain (JH2) of human V617F mutant JAK2 (Homo sapiens, UniProt O60674, F794H/V617F/W659A/W777A); assay: JAK2 LanthaScreen JH2-V617F Binding Assay; conditions: 50 nM Fluorescent JAK2-JH2 Tracer, 1 hour at 25° C.
# T1 construct: pseudo-kinase domain (JH2, amino-acids 536-812 with 3 surface mutations W659A, W777A, F794H); His (C); purchased BPS Bioscience 79498; host or cells: baculovirus expression system
# How it was run: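 Biotinylated His-Avi-tagged JH2 domain (aa 536-812, V617F plus 3 surface mutations; 0.26 nM), baculovirus-expressed, incubated 1 hour at 25° C with compound, 50 nM fluorescent JH2 tracer and 0.25 nM streptavidin-Tb in pH 7.5 Tris buffer. Tracer displacement read by LanthaScreen TR-FRET; non-specific binding with 2 mM ATP; four-parameter IC50.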
# [2] = target: T2, pseudo-kinase domain (JH2) of human Wild Type JAK2 (Homo sapiens, UniProt O60674, F794H/W659A/W777A); assay: JAK2 LanthaScreen JH2-WT Binding Assay; conditions: 50 nM Fluorescent JAK2-JH2 Tracer, 1 hour at 25° C.
# T2 construct: pseudo-kinase domain (JH2, amino-acids 536-812 with 3 surface mutations W659A, W777A, F794H); His (C); purchased BPS Bioscience 79463; host or cells: baculovirus expression system
# How it was run: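 Biotinylated His-Avi-tagged JAK2 JH2 (aa 536-812, three surface mutations; 0.145 nM) competed with 50 nM fluorescent tracer, using 0.25 nM streptavidin-Tb, in pH 7.5 Tris buffer for 1 h at 25° C.; non-specific binding was set with 2 mM ATP. TR-FRET read; IC50 from four-parameter fit.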
# [3] = target: T3, catalytic domain (JH1) of human JAK2 (Homo sapiens, UniProt O60674); assay: JAK2 LanthaScreen JH1 Binding Assay; conditions: 50 nM Fluorescent JAK2-JH1 Tracer, 2 hours at 25° C.
# T3 construct: catalytic domain (JH1, amino acids 826-1132) of human JAK2; FLAG (N); purchased Carna Biosciences 08-445-20N; host or cells: baculovirus expression system
# How it was run: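 TR-FRET tracer-displacement binding using N-terminal FLAG-tagged, biotinylated JH1 (aa 826-1132, baculovirus-expressed) at 1.5 nM, with 50 nM fluorescent tracer and 0.5 nM streptavidin-Tb. Buffer was 50 mM Tris pH 7.5, 10 mM MgCl2, 5 mM DTT, 2 h at 25° C. Non-specific binding used 2 mM ATP; IC50 came from four-parameter fits.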
# T3 sequence (O60674 826-1132): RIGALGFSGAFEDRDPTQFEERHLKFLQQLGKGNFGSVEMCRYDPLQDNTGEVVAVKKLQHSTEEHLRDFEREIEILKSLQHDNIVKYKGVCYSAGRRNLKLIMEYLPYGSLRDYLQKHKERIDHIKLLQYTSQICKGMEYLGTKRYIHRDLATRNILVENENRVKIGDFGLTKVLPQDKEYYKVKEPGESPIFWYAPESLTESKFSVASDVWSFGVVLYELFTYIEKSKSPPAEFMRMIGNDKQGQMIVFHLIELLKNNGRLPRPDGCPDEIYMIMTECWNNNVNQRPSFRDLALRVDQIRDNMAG
# T1 sequence (O60674 536-812 V617F/W659A/W777A/F794H): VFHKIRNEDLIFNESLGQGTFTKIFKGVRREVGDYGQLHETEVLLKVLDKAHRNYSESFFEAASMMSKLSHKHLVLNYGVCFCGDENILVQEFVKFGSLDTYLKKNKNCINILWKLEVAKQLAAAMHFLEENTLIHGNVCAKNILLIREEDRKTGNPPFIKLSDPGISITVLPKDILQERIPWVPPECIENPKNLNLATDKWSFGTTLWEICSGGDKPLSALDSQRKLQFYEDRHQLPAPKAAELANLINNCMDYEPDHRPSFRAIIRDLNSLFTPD
# T2 sequence (O60674 536-812 W659A/W777A/F794H): as the sequence (O60674 536-812 V617F/W659A/W777A/F794H) above, with F82V counted along it
pIC50 [1],pIC50 [2],pIC50 [3],SMILES
6.00 to 6.30,6.00 to 6.30,< 5.60,"COc1ccccc1-c1c(-c2ccc(C(=O)N(C)C)cc2)[nH]c2nc(N)[nH]c(=O)c12 [Example 56, 4-(2-Amino-5-(2-methoxyphenyl)-4-oxo-4,7-dihydro-3H-pyrrolo[2,3-d]pyrimidin-6-yl)-N,N-dimethylbenzamide]"
5.60 to 6.00,5.60 to 6.00,< 5.60,"COc1ccccc1-c1c(-c2ccccc2)[nH]c2nc(N)[nH]c(=O)c12 [Example 57, 2-Amino-5-(2-methoxyphenyl)-6-phenyl-3,7-dihydro-4H-pyrrolo [2,3-d]pyrimidin-4-one]"
5.60 to 6.00,5.60 to 6.00,< 5.60,"Nc1nc2[nH]c(-c3ccccc3)c(-c3cccc(F)c3)c2c(=O)[nH]1 [Example 58, 2-Amino-5-(3-fluorophenyl)-6-phenyl-3,7-dihydro-4H-pyrrolo[2,3-d] pyrimidin-4-one]"
< 5.60,< 5.60,< 5.60,"Nc1nc2[nH]c(-c3ccccc3)c(-c3ccccc3C(F)(F)F)c2c(=O)[nH]1 [Example 59, 2-Amino-6-phenyl-5-(2-(trifluoro-methyl)phenyl)-3,7-dihydro-4H-pyrrolo[2,3-d] pyrimidin-4-one]"
6.00 to 6.30,6.00 to 6.30,< 5.60,"Cc1cccc(-c2c(-c3ccc(C(=O)N(C)C)cc3)[nH]c3nc(N)[nH]c(=O)c23)c1 [Example 60, 4-(2-Amino-4-oxo-5-(3-tolyl)-4,7-dihydro-3H-pyrrolo[2,3-d]pyrimidin-6-yl)-N,N-dimethylbenzamide]"
5.60 to 6.00,5.60 to 6.00,< 5.60,"Cc1cccc(-c2c(-c3cccc(C(=O)N(C)C)c3)[nH]c3nc(N)[nH]c(=O)c23)c1 [Example 61, 3-(2-Amino-4-oxo-5-(3-tolyl)-4,7-dihydro-3H-pyrrolo [2,3-d]pyrimidin-6-yl)-N,N-dimethyl-benzamide]"
6.00 to 6.30,5.60 to 6.00,< 5.60,"COc1ccccc1-c1c(-c2ccc(S(C)(=O)=O)cc2)[nH]c2nc(N)[nH]c(=O)c12 [Example 62, 2-Amino-5-(2-methoxyphenyl)-6-(4-(methylsulfonyl)phenyl)-3,7-dihydro-4H-pyrrolo [2,3-d]pyrimidin-4-one]"
< 5.60,< 5.60,< 5.60,"COc1ccccc1-c1c(-c2cccc(S(C)(=O)=O)c2)[nH]c2nc(N)[nH]c(=O)c12 [Example 63, 2-Amino-5-(2-methoxyphenyl)-6-(3-(methylsulfonyl)phenyl)-3,7-dihydro-4H-pyrrolo[2,3-d] pyrimidin-4-one]"
6.30 to 7.00,6.30 to 7.00,6.30 to 7.00,"CN(C)S(=O)(=O)c1ccc(-c2[nH]c3nc(N)[nH]c(=O)c3c2-c2ccccc2F)cc1 [Example 64, 4-(2-Amino-5-(2-fluorophenyl)-4-oxo-4,7-dihydro-3H-pyrrolo[2,3-d]pyrimidin-6-yl)-N,N-dimethylbenzene-sulfonamide]"
6.30 to 7.00,6.30 to 7.00,< 5.60,"COc1ccccc1-c1c(-c2ccc(S(=O)(=O)N(C)C)cc2)[nH]c2nc(N)[nH]c(=O)c12 [Example 65, 4-(2-Amino-5-(2-methoxyphenyl)-4-oxo-4,7-dihydro-3H-pyrrolo[2,3-d]pyrimidin-6-yl)-N,N-dimethylbenzene-sulfonamide]"
6.30 to 7.00,6.30 to 7.00,< 5.60,"COc1ccc(C)cc1-c1c(-c2ccc(S(=O)(=O)N(C)C)cc2)[nH]c2nc(N)[nH]c(=O)c12 [Example 66, 4-(2-Amino-5-(2-methoxy-5-methylphenyl)-4-oxo-4,7-dihydro-3H-pyrrolo[2,3-d]pyrimidin-6-yl)-N,N-dimethylbenzenesulfonamide]"
6.30 to 7.00,6.30 to 7.00,6.30 to 7.00,"Cc1cccc(-c2c(-c3ccc(S(=O)(=O)N(C)C)cc3)[nH]c3nc(N)[nH]c(=O)c23)c1F [Example 67, 4-(2-Amino-5-(2-fluoro-3-methylphenyl)-4-oxo-4,7-dihydro-3H-pyrrolo[2,3-d]pyrimidin-6-yl)-N,N-dimethylbenzenesulfonamide]"
6.00 to 6.30,6.00 to 6.30,< 5.60,"COc1cccc(F)c1-c1c(-c2ccc(S(=O)(=O)N(C)C)cc2)[nH]c2nc(N)[nH]c(=O)c12 [Example 68, 4-(2-Amino-5-(2-fluoro-6-methoxyphenyl)-4-oxo-4,7-dihydro-3H-pyrrolo[2,3-d]pyrimidin-6-yl)-N,N-dimethylbenzenesulfonamide]"
6.30 to 7.00,6.30 to 7.00,5.60 to 6.00,"Cc1ccc(F)c(-c2c(-c3ccc(S(=O)(=O)N(C)C)cc3)[nH]c3nc(N)[nH]c(=O)c23)c1 [Example 69, 4-(2-Amino-5-(2-fluoro-5-methylphenyl)-4-oxo-4,7-dihydro-3H-pyrrolo[2,3-d]pyrimidin-6-yl)-N,N-dimethylbenzenesulfonamide]"
5.60 to 6.00,5.60 to 6.00,< 5.60,"CCOc1ccccc1-c1c(-c2ccc(S(=O)(=O)N(C)C)cc2)[nH]c2nc(N)[nH]c(=O)c12 [Example 70, 4-(2-Amino-5-(2-ethoxyphenyl)-4-oxo-4,7-dihydro-3H-pyrrolo[2,3-d]pyrimidin-6-yl)-N,N-dimethylbenzenesulfonamide]"
< 5.60,< 5.60,< 5.60,"CN(C)S(=O)(=O)c1ccc(-c2[nH]c3nc(N)[nH]c(=O)c3c2-c2cccc3c2OC(C)(C)C3)cc1 [Example 71, 4-(2-Amino-5-(2,2-dimethyl-2,3-dihydrobenzofuran-7-yl)-4-oxo-4,7-dihydro-3H-pyrrolo[2,3-d]pyrimidin-6-yl)-N,N-dimethylbenzenesulfonamide]"
